How the values were obtained:
PDAC KRAS^AMP models = assay: RMC-6236 plus chemotherapy in PDAC KRAS^AMP models; type: in vivo; conditions: FIG. 4
PIP3 levels = PIP3 levels in KRAS-mutant PDAC lines; type: cell-based; conditions: KRAS^G12D-mutant PDAC lines; FIG. 5 right
pERK (MAPK signaling) = pERK (MAPK signaling) levels in KRAS mutant cell lines; type: cell-based; conditions: FIG. 6
PI3K activity = PI3K activity in KRAS wild-type and KRAS^G12X mutant lines; type: cell-based; conditions: for PI3K activity: FIG. 5 left

| SMILES | activity and durability in combination (PDAC KRAS^AMP models; combined with FOLFIRINOX) | activity and durability in combination (PDAC KRAS^AMP models; combined with GEM+Abraxane) | monotherapy activity versus chemotherapy (PDAC KRAS^AMP models; monotherapy, EGFR-mutant PDAC (so in the source)) | PIP3 levels (PIP3 levels) | levels of pERK (MAPK signaling) (pERK (MAPK signaling); KRAS^G12D mutant cell lines) | levels of pERK (MAPK signaling) (pERK (MAPK signaling); KRAS^G12R mutant cell lines) | PI3K activity (PI3K activity; KRAS^G12C) | PI3K activity (PI3K activity; KRAS^G12D) | PI3K activity (PI3K activity; KRAS^G12R line) | PI3K and MAPK activity (summary statement) (PI3K activity; KRAS^G12R lines) | PI3K activity (PI3K activity; KRAS^G12V) | PI3K activity (PI3K activity; KRAS^WT) | PI3K and MAPK activity (summary statement) (PI3K activity; isogenic and mutant KRAS^G12D lines) |
| --- | --- | --- | --- | --- | --- | --- | --- | --- | --- | --- | --- | --- | --- |
| CCn1c(-c2cc(N3CCN(C)CC3)cnc2[C@H](C)OC)c2c3cc(ccc31)-c1csc(n1)C[C@H](NC(=O)[C@H]1C[C@@H]1C)C(=O)N1CCC[C@H](N1)C(=O)OCC(C)(C)C2 [RMC-6236] | combination benefit resulting in increased activity and durability | combination benefit resulting in increased activity and durability | comparable activity against EGFR-mutant PDAC as chemotherapy | – | – | – | – | – | – | – | – | – | – |
| CCn1c(-c2cc(N3CCN(C4CC4)CC3)cnc2[C@H](C)OC)c2c3cc(ccc31)-c1csc(n1)C[C@H](NC(=O)C1[C@H]3COC[C@@H]13)C(=O)N1CCC[C@H](N1)C(=O)OCC(C)(C)C2 (stereo partly shown) [RMC-7977] | – | – | – | suppresses | decreased | decreased | moderate inhibitory effect | completely suppressed | no effect | not | moderate inhibitory effect | completely suppressed | suppresses both PI3K and MAPK activity |

From patent US20260053798A1, “COMBINATION THERAPY FOR A RAS RELATED DISEASE OR DISORDER” (Revolution Medicines, Inc., priority 2023, published 2026)
